In US6479435B1, “Diaryl ethers and processes for their preparation and herbicidal and desiccant compositions containing them” (ISK Americas Incorporated, priority 1997, dated 2002):

What was measured:
Format in all cases: in vivo
[1] = tested on: sicklepod (Cassia obtusifolia, CASOB); assay: Pre-emerge greenhouse herbicide test, phytotoxicity rating; settings: 14 days after application, rating scale 0-100
Method in brief: (§1)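 Seeds sown in sandy loam one day before track-sprayer application of acetone solutions at 125–1000 g ai/ha (187 l/ha), then surface-watered to incorporate and bottom-watered. Injury scored visually at 14 days on a 0–100 scale (0 no damage, 100 complete death).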

[2] = tested on: ivyleaf morningglory (Ipomoea hederacea, IPOHE); assay: as above; settings: 14 days after application, rating scale 0-100
Method in brief: as §1

[3] = tested on: common ragweed (Ambrosia artemisiifolia L., AMBEL); assay: as above; settings: 14 days after application, rating scale 0-100
Method in brief: as §1

[4] = tested on: green foxtail (Setaria viridis, SETVI); assay: as above; settings: 14 days after application, rating scale 0-100
Method in brief: as §1

[5] = tested on: Johnsongrass (Sorghum halepense, SORHA); assay: as above; settings: 14 days after application, rating scale 0-100
Method in brief: as §1

[6] = tested on: barnyardgrass (Echinochloa crusgalli, ECHCG); assay: as above; settings: 14 days after application, rating scale 0-100
Method in brief: as §1

[7] = tested on: large crabgrass (Digitaria sanguinalis, DIGSA); assay: as above; settings: 14 days after application, rating scale 0-100
Method in brief: as §1

[8] = tested on: redroot pigweed (Amaranthus retroflexus, AMARE); assay: as above; settings: 14 days after application, rating scale 0-100
Method in brief: as §1

[9] = tested on: lambsquarters (Chenopodium album, CHEAL); assay: as above; settings: 14 days after application, rating scale 0-100
Method in brief: as §1

[10] = tested on: velvetleaf (Abutilon theophrasti, ABUTH); assay: as above; settings: 14 days after application, rating scale 0-100
Method in brief: as §1

[11] = tested on: common ragweed (Ambrosia artemisiifolia L., AMBEL); assay: Post-emerge greenhouse herbicide test, phytotoxicity rating; settings: 14 days after application
Method in brief: (§2)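 Plants at the 2-3 leaf stage, sown 8-21 days earlier, were track-sprayed post-emergence with compound in acetone plus 0.25% v/v non-ionic surfactant at 63-1000 g ai/ha (187 l/ha). Damage was rated at 14 days on a 0-100 scale (0 none, 100 all plants dead), for both crop injury and weed control.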

[12] = tested on: soybean (Glycine max L., var. Pella 86, SOY); assay: Pre-emerge greenhouse test, crop damage rating; settings: 14 days after application, rating scale 0-100
Method in brief: as §1

[13] = tested on: upland rice (Oryza sp., var.Tebonnet, RICE); assay: Post-emerge greenhouse test, crop damage rating; settings: 14 days after application
Method in brief: as §2

[14] = tested on: field corn (Zea mays L., var. Dekalb 535, CORN); assay: Post-emerge greenhouse test, crop damage rating; settings: 14 days after application
Method in brief: as §2

[15] = tested on: sicklepod (Cassia obtusifolia, CASOB); assay: Post-emerge greenhouse herbicide test, phytotoxicity rating; settings: 14 days after application
Method in brief: as §2

[16] = tested on: ivyleaf morningglory (Ipomoea hederacea, IPOHE); assay: as above; settings: 14 days after application
Method in brief: as §2

[17] = tested on: green foxtail (Setaria viridis, SETVI); assay: as above; settings: 14 days after application
Method in brief: as §2

[18] = tested on: Johnsongrass (Sorghum halepense, SORHA); assay: as above; settings: 14 days after application
Method in brief: as §2

[19] = tested on: barnyardgrass (Echinochloa crusgalli, ECHCG); assay: as above; settings: 14 days after application
Method in brief: as §2

[20] = tested on: large crabgrass (Digitaria sanguinalis, DIGSA); assay: as above; settings: 14 days after application
Method in brief: as §2

[21] = tested on: redroot pigweed (Amaranthus retroflexus, AMARE); assay: as above; settings: 14 days after application
Method in brief: as §2

[22] = tested on: lambsquarters (Chenopodium album, CHEAL); assay: as above; settings: 14 days after application
Method in brief: as §2

[23] = tested on: velvetleaf (Abutilon theophrasti, ABUTH); assay: as above; settings: 14 days after application
Method in brief: as §2

[24] = tested on: upland rice (Oryza sp., var.Tebonnet, RICE); assay: Pre-emerge greenhouse test, crop damage rating; settings: 14 days after application, rating scale 0-100
Method in brief: as §1

[25] = tested on: field corn (Zea mays L., var. Dekalb 535, CORN); assay: Pre-emerge greenhouse test, crop damage rating; settings: 14 days after application, rating scale 0-100
Method in brief: as §1

[26] = tested on: soybean (Glycine max L., var. Pella 86, SOY); assay: Post-emerge greenhouse test, crop damage rating; settings: 14 days after application
Method in brief: as §2

For Nc1ccc(Oc2cc(-n3c(=O)n4n(c3=S)CCCC4)c(F)cc2Cl)cc1 [Compound 8-9], the “phytotoxicity rating CASOB” value ([1]; 125 g ai/ha) was 0, the “phytotoxicity rating CASOB” value ([1]; 500 g ai/ha) was 40 and the “phytotoxicity rating IPOHE” value ([2]; 125 g ai/ha) was 0. For the same compound, the “phytotoxicity rating IPOHE” value ([2]; 500 g ai/ha) was 10, the “phytotoxicity rating AMBEL” value ([3]; 125 g ai/ha) was 30 and the “phytotoxicity rating AMBEL” value ([3]; 500 g ai/ha) was 30. For the same compound, the “phytotoxicity rating SETVI” value ([4]; 125 g ai/ha) was 0, the “phytotoxicity rating SETVI” value ([4]; 500 g ai/ha) was 30 and the “phytotoxicity rating SORHA” value ([5]; 125 g ai/ha) was 0. The “phytotoxicity rating SORHA” value ([5]; 500 g ai/ha) was 0, the “phytotoxicity rating ECHCG” value ([6]; 125 g ai/ha) was 0 and the “phytotoxicity rating ECHCG” value ([6]; 500 g ai/ha) was 0. For the same compound, the “phytotoxicity rating DIGSA” value ([7]; 125 g ai/ha) was 0, the “phytotoxicity rating DIGSA” value ([7]; 500 g ai/ha) was 0 and the “phytotoxicity rating AMARE” value ([8]; 125 g ai/ha) was 100. For the same compound, the “phytotoxicity rating AMARE” value ([8]; 500 g ai/ha) was 95, the “phytotoxicity rating CHEAL” value ([9]; 125 g ai/ha) was 70 and the “phytotoxicity rating CHEAL” value ([9]; 500 g ai/ha) was 100. For the same compound, the “phytotoxicity rating ABUTH” value ([10]; 125 g ai/ha) was 60, the “phytotoxicity rating ABUTH” value ([10]; 500 g ai/ha) was 100 and the “AMBEL phytotoxicity rating (0-100)” value ([11]; 63 g al/ha) was 30. For the same compound, the “AMBEL phytotoxicity rating (0-100)” value ([11]; 500 g al/ha) was 80, the “crop damage rating SOY” value ([12]; 125 g ai/ha) was 0 and the “crop damage rating SOY” value ([12]; 500 g ai/ha) was 0. For the same compound, the “RICE crop damage rating (0-100)” value ([13]; 63 g al/ha) was 0, the “RICE crop damage rating (0-100)” value ([13]; 500 g al/ha) was 0 and the “CORN crop damage rating (0-100)” value ([14]; 63 g al/ha) was 0. For the same compound, the “CORN crop damage rating (0-100)” value ([14]; 500 g al/ha) was 10, the “CASOB phytotoxicity rating (0-100)” value ([15]; 63 g al/ha) was 0 and the “CASOB phytotoxicity rating (0-100)” value ([15]; 500 g al/ha) was 100. For the same compound, the “IPOHE phytotoxicity rating (0-100)” value ([16]; 63 g al/ha) was 40, the “IPOHE phytotoxicity rating (0-100)” value ([16]; 500 g al/ha) was 100 and the “SETVI phytotoxicity rating (0-100)” value ([17]; 63 g al/ha) was 0. For the same compound, the “SETVI phytotoxicity rating (0-100)” value ([17]; 500 g al/ha) was 30, the “SORHA phytotoxicity rating (0-100)” value ([18]; 63 g al/ha) was 0 and the “SORHA phytotoxicity rating (0-100)” value ([18]; 500 g al/ha) was 30. The “ECHCG phytotoxicity rating (0-100)” value ([19]; 63 g al/ha) was 0, the “ECHCG phytotoxicity rating (0-100)” value ([19]; 500 g al/ha) was 0 and the “DIGSA phytotoxicity rating (0-100)” value ([20]; 63 g al/ha) was 0. For the same compound, the “DIGSA phytotoxicity rating (0-100)” value ([20]; 500 g al/ha) was 10, the “AMARE phytotoxicity rating (0-100)” value ([21]; 63 g al/ha) was 90 and the “AMARE phytotoxicity rating (0-100)” value ([21]; 500 g al/ha) was 100. For the same compound, the “CHEAL phytotoxicity rating (0-100)” value ([22]; 63 g al/ha) was 60, the “CHEAL phytotoxicity rating (0-100)” value ([22]; 500 g al/ha) was 95 and the “ABUTH phytotoxicity rating (0-100)” value ([23]; 63 g al/ha) was 50. The “ABUTH phytotoxicity rating (0-100)” value ([23]; 500 g al/ha) was 100, the “crop damage rating RICE” value ([24]; 125 g ai/ha) was 0 and the “crop damage rating RICE” value ([24]; 500 g ai/ha) was 0. For the same compound, the “crop damage rating CORN” value ([25]; 125 g ai/ha) was 0, the “crop damage rating CORN” value ([25]; 500 g ai/ha) was 0 and the “SOY crop damage rating (0-100)” value ([26]; 63 g al/ha) was 20. For the same compound, the “SOY crop damage rating (0-100)” value ([26]; 500 g al/ha) was 70.
With O=c1n(-c2cc(Oc3ccc([N+](=O)[O-])cc3C(F)(F)F)c(Cl)cc2F)c(=S)n2n1CCCC2 [Compound 8-14] the “phytotoxicity rating CASOB” value ([1]; 125 g ai/ha) was 0, the “phytotoxicity rating CASOB” value ([1]; 500 g ai/ha) was 0 and the “phytotoxicity rating IPOHE” value ([2]; 125 g ai/ha) was 0. For the same compound, the “phytotoxicity rating IPOHE” value ([2]; 500 g ai/ha) was 0, the “phytotoxicity rating AMBEL” value ([3]; 125 g ai/ha) was 0 and the “phytotoxicity rating AMBEL” value ([3]; 500 g ai/ha) was 30. For the same compound, the “phytotoxicity rating SETVI” value ([4]; 125 g ai/ha) was 0, the “phytotoxicity rating SETVI” value ([4]; 500 g ai/ha) was 50 and the “phytotoxicity rating SORHA” value ([5]; 125 g ai/ha) was 0. The “phytotoxicity rating SORHA” value ([5]; 500 g ai/ha) was 0, the “phytotoxicity rating ECHCG” value ([6]; 125 g ai/ha) was 0 and the “phytotoxicity rating ECHCG” value ([6]; 500 g ai/ha) was 0. The “phytotoxicity rating DIGSA” value ([7]; 125 g ai/ha) was 0, the “phytotoxicity rating DIGSA” value ([7]; 500 g ai/ha) was 20 and the “phytotoxicity rating AMARE” value ([8]; 125 g ai/ha) was 70. For the same compound, the “phytotoxicity rating AMARE” value ([8]; 500 g ai/ha) was 95, the “phytotoxicity rating CHEAL” value ([9]; 125 g ai/ha) was 80 and the “phytotoxicity rating CHEAL” value ([9]; 500 g ai/ha) was 100. For the same compound, the “phytotoxicity rating ABUTH” value ([10]; 125 g ai/ha) was 30, the “phytotoxicity rating ABUTH” value ([10]; 500 g ai/ha) was 60 and the “AMBEL phytotoxicity rating (0-100)” value ([11]; 63 g al/ha) was 40. The “AMBEL phytotoxicity rating (0-100)” value ([11]; 500 g al/ha) was 60, the “crop damage rating SOY” value ([12]; 125 g ai/ha) was 0 and the “crop damage rating SOY” value ([12]; 500 g ai/ha) was 0. The “RICE crop damage rating (0-100)” value ([13]; 63 g al/ha) was 0, the “RICE crop damage rating (0-100)” value ([13]; 500 g al/ha) was 0 and the “CORN crop damage rating (0-100)” value ([14]; 63 g al/ha) was 5. For the same compound, the “CORN crop damage rating (0-100)” value ([14]; 500 g al/ha) was 5, the “CASOB phytotoxicity rating (0-100)” value ([15]; 63 g al/ha) was 40 and the “CASOB phytotoxicity rating (0-100)” value ([15]; 500 g al/ha) was 30. For the same compound, the “IPOHE phytotoxicity rating (0-100)” value ([16]; 63 g al/ha) was 80, the “IPOHE phytotoxicity rating (0-100)” value ([16]; 500 g al/ha) was 85 and the “SETVI phytotoxicity rating (0-100)” value ([17]; 63 g al/ha) was 30. For the same compound, the “SETVI phytotoxicity rating (0-100)” value ([17]; 500 g al/ha) was 20, the “SORHA phytotoxicity rating (0-100)” value ([18]; 63 g al/ha) was 0 and the “SORHA phytotoxicity rating (0-100)” value ([18]; 500 g al/ha) was 0. The “ECHCG phytotoxicity rating (0-100)” value ([19]; 63 g al/ha) was 0, the “ECHCG phytotoxicity rating (0-100)” value ([19]; 500 g al/ha) was 0 and the “DIGSA phytotoxicity rating (0-100)” value ([20]; 63 g al/ha) was 0. For the same compound, the “DIGSA phytotoxicity rating (0-100)” value ([20]; 500 g al/ha) was 0, the “AMARE phytotoxicity rating (0-100)” value ([21]; 63 g al/ha) was 70 and the “AMARE phytotoxicity rating (0-100)” value ([21]; 500 g al/ha) was 90. For the same compound, the “CHEAL phytotoxicity rating (0-100)” value ([22]; 63 g al/ha) was 80, the “CHEAL phytotoxicity rating (0-100)” value ([22]; 500 g al/ha) was 90 and the “ABUTH phytotoxicity rating (0-100)” value ([23]; 63 g al/ha) was 95. For the same compound, the “ABUTH phytotoxicity rating (0-100)” value ([23]; 500 g al/ha) was 95, the “crop damage rating RICE” value ([24]; 125 g ai/ha) was 0 and the “crop damage rating RICE” value ([24]; 500 g ai/ha) was 0. For the same compound, the “crop damage rating CORN” value ([25]; 125 g ai/ha) was 0, the “crop damage rating CORN” value ([25]; 500 g ai/ha) was 0 and the “SOY crop damage rating (0-100)” value ([26]; 63 g al/ha) was 30. For the same compound, the “SOY crop damage rating (0-100)” value ([26]; 500 g al/ha) was 30.
